The Ki is a dissociation constant, usually derived from enzyme kinetics or from competition with a known ligand. Lower therefore signals higher affinity.

In the assay the target is Human immunodeficiency virus type 1 protease (Human immunodeficiency virus 1, UniProt Q72874). Description: Compound was tested for binding affinity against HIV-1 protease.
The compound `O=C1N(Cc2ccccc2)[C@@H](Cc2ccccc2)[C@H](O)[C@@H](O)[C@H](Cc2ccccc2)N1Cc1ccccc1` registered a Ki of 560 nM.

For `O=C1N(Cc2ccccc2)[C@H](Cc2ccccc2)[C@H](O)[C@@H](O)[C@@H](Cc2ccccc2)N1Cc1ccccc1`, the inhibitory constant (Ki) is 3.6 nM.

`O=C1N(Cc2ccccc2)[C@H](Cc2ccccc2)[C@@H](O)[C@H](O)[C@@H](Cc2ccccc2)N1Cc1ccccc1` displayed an inhibitory constant (Ki) of 1350 nM.

The compound `O=C1N(Cc2ccccc2)[C@@H](Cc2ccccc2)[C@H](O)[C@H](O)[C@H](Cc2ccccc2)N1Cc1ccccc1` returned an inhibition constant Ki of 1710 nM.

The compound `O=C1N(Cc2ccccc2)[C@H](Cc2ccccc2)[C@H](O)[C@@H](O)[C@H](Cc2ccccc2)N1Cc1ccccc1` registered a Ki of 64 nM.

`O=C1N(Cc2ccccc2)[C@H](Cc2ccccc2)[C@H](O)[C@H](O)[C@H](Cc2ccccc2)N1Cc1ccccc1`: affinity was put at a Ki of 250 nM.

`O=C1N(Cc2ccccc2)[C@H](Cc2ccccc2)[C@@H](O)[C@H](O)[C@H](Cc2ccccc2)N1Cc1ccccc1` registered an inhibitory constant (Ki) of 6700 nM.

`O=C1N(Cc2ccccc2)[C@@H](Cc2ccccc2)[C@@H](O)[C@H](O)[C@H](Cc2ccccc2)N1Cc1ccccc1` showed a Ki of 3810 nM.

Values taken from ChEMBL document CHEMBL1131594, “Stereoisomers of cyclic urea HIV-1 protease inhibitors: synthesis and binding affinities” (J Med Chem, 1998).
